Test system: MI / coronary events in Scottish men with hypercholesterolemia
Experiment: WOSCOPS nested case-control study: MI/CHD in pravastatin- vs placebo-treated patients stratified by SNP genotype
Assay type: in vivo, human
Conditions: for OR, CHD case vs control, Matched: placebo = ref 1.00, cases and controls matched for age and smoking; for OR, CHD case vs control, Adjusted: placebo = ref 1.00, matched and adjusted for hypertension, diabetes, BMI, LDL-C, HDL-C; for Risk Reduction by Statin (Pravastatin vs. Placebo) OR: odds ratio of MI, pravastatin- vs placebo-treated, heterozygous carriers of hCV3054799 only
Text: In order to identify genetic markers associated with acute coronary events (e.g. MI, stroke, unstable angina, congestive heart failure, etc.) or response to statin treatment for the prevention of coronary events, samples were genotyped in two clinical trials: the Cholesterol and Recurrent Events (CARE) study (a randomized multicentral double-blinded trial on secondary prevention of acute coronary events with pravastatin; Sacks et al., Am. J. Cardiol. 68: 1436-1446[1991]), and the West of Scotland Coronary Prevention Study (WOSCOPS) study (Shepherd et al., N Eng J Med 333 (20), pp. 1301-7, Nov. 16, 1995; Packard et al., N Eng J Med 343 (16), pp. 1148-55, Oct. 19, 2000).
Genetic markers identified as associated with acute coronary events or response to statin treatment for the prevention of coronary events in the CARE samples were also genotyped in a second sample set, the West of Scotland Coronary Prevention Study (WOSCOPS). The design of the original WOSCOPS cohort and the nested case-control study have been described (Shepherd et al., N Eng J Med 333 (20), pp. 1301-7, Nov. 16, 1995; Packard et al., N Eng J Med 343 (16), pp. 1148-55, Oct. 19, 2000). The objective of the WOSCOPS trial was to assess pravastatin efficacy at reducing risk of primary MI or coronary death among Scottish men with hypercholesterolemia (fasting LDL cholesterol>155 mg/dl). Participants in the WOSCOPS study were 45-64 years of age and followed for an average of 4.9 years for coronary events. The nested case-control study included as cases all WOSCOPS patients who experienced a coronary event (confirmed nonfatal MI, death from coronary heart disease, or a revascularization procedure; N=580). Controls were age- and smoking-matched unaffected patients. All individuals included in the study had signed informed consent forms and the study protocol was approved by the IRBs. DNA was extracted and genotyped as described above.
The association of hCV3054799 with risk of MI in patients was tested in two clinical trials, CARE and WOSCOPS, with patients receiving treatment with either pravastatin or placebo. CARE was a secondary prevention trial (i.e., recurrent MI as endpoint) and WOSCOPS was a primary prevention trial. […] The analysis in WOSCOPS (a nested case-control study) was performed using the MI as an endpoint.
In both the CARE and WOSCOPS studies, an association analysis was performed for each of the two modes of inheritance, dominant and recessive. Additionally, a genotypic test (heterozygote v. major homozygote) and an allelic test of association were performed using Fisher's exact method. Estimates of odds ratios and corresponding ninety-five percent confidence intervals were calculated. The significance of the disease association for hCV3054799 with the overall (unstratified) population, and with the placebo- or pravastatin-treated patients are indicated in Table 8. […] In patients that are heterozygous carriers of the minor allele, the odds ratio for risk of MI relative to patients with no minor allele is 1.7, with a P value below 0.01 both studies. The odds ratio is approximately the same (1.6-1.7) when calculated for the dominant mode of inheritance (a genotype with one or two minor alleles vs. none), with a P value less than or equal to 0.01 in both studies.
Also analyzed was whether hCV3054799 is associated with response to statin treatment (specifically, a decreased risk of MI as a result of treatment with pravastatin). […] Heterozygous carriers in the placebo treatment group were used as a reference in determining the odds ratios. […] For comparison, the odds ratio for association of this SNP with MI risk in placebo-treated carriers is also presented, under the heading “MI/RMI risk estimation” (data from Table 8; again, heterozygous carriers).
In analyzing the CARE patients, statistical analysis was performed with SAS version 9. […]

## CC[C@H](C)C(=O)O[C@H]1C[C@H](O)C=C2C=C[C@H](C)[C@H](CC[C@@H](O)C[C@@H](O)CC(=O)O)[C@H]21 [pravastatin]
KIF6 hCV3054799 AA
  OR, CHD case vs control, Matched: 0.94
  OR, CHD case vs control, Adjusted: 0.91
KIF6 hCV3054799 GG + GA
  OR, CHD case vs control, Matched: 0.50
  OR, CHD case vs control, Adjusted: 0.50
  Risk Reduction by Statin (Pravastatin vs. Placebo) OR: approximately 0.5
Listed as Pravastatin
  Risk Reduction by Statin (Pravastatin vs. Placebo) OR: 0.45
